Consider six compounds from ChEMBL document CHEMBL1649220, “New variant of CTX-M-type extended-spectrum beta-lactamases, CTX-M-71, with a Gly238Cys substitution in a Klebsiella pneumoniae isolate from Bulgaria” (2009).

Converted amounts (≈) assume the structure as drawn.

In one assay the test system is Klebsiella pneumoniae. As to the kind of experiment: Antimicrobial activity against Klebsiella pneumoniae AH24-270 expressing blaCTX-M-71 gene by agar dilution method. It counts as functional.
Conditions: not given
A general note: In agar dilution, organisms are placed on agar that contains the substance at set levels.
As usually defined, the MIC is the lowest concentration that inhibits growth of the organism. Regarding `C[C@H]1[C@H](NC(=O)/C(=N\OC(C)(C)C(=O)O)c2csc(N)n2)C(=O)N1S(=O)(=O)O` [AZTREONAM], the minimum inhibitory concentration (MIC) was 128 µg/mL (≈ 294 µM).

Consider `CO[C@@]1(NC(=O)Cc2cccs2)C(=O)N2C(C(=O)O)=C(COC(N)=O)CS[C@@H]21` [CEFOXITIN], for which the lowest concentration to inhibit growth (MIC) was 64 µg/mL (≈ 150 µM).

`CO/N=C(\C(=O)N[C@@H]1C(=O)N2C(C(=O)[O-])=C(C[N+]3(C)CCCC3)CS[C@H]12)c1csc(N)n1` [CEFEPIME] returned an MIC of 128 µg/mL (≈ 266 µM).

`C[C@@H](O)[C@H]1C(=O)N2C(C(=O)O)=C(SCCNC=N)C[C@H]12` [IMIPENEM ANHYDROUS] returned a minimum inhibitory concentration (MIC) of 1 µg/mL (≈ 3.34 µM).

`CO/N=C(\C(=O)N[C@@H]1C(=O)N2C(C(=O)O)=C(COC(C)=O)CS[C@H]12)c1csc(N)n1` [CEFOTAXIME] showed a minimal inhibitory concentration (MIC) of 64 µg/mL (≈ 141 µM).

For `C[C@@H](O)[C@H]1C(=O)N2C(C(=O)O)=C(S[C@@H]3CN[C@H](C(=O)Nc4cccc(C(=O)O)c4)C3)[C@H](C)[C@H]12` [ERTAPENEM], the minimum inhibitory concentration (MIC) was 3 µg/mL (≈ 6.31 µM).

The next assay has as its system Escherichia coli. As to the kind of experiment: Antimicrobial activity against Escherichia coli K-12 transconjugant harboring blaCTX-M-71 gene by agar dilution method. The assay is classed as functional.
Conditions: not given
In turn, `C[C@H]1[C@H](NC(=O)/C(=N\OC(C)(C)C(=O)O)c2csc(N)n2)C(=O)N1S(=O)(=O)O` [AZTREONAM] returned a minimum inhibitory concentration (MIC) of 8 µg/mL (≈ 18.4 µM).

`CO[C@@]1(NC(=O)Cc2cccs2)C(=O)N2C(C(=O)O)=C(COC(N)=O)CS[C@@H]21` [CEFOXITIN] had an MIC of 2 µg/mL (≈ 4.68 µM).

`CO/N=C(\C(=O)N[C@@H]1C(=O)N2C(C(=O)O)=C(COC(C)=O)CS[C@H]12)c1csc(N)n1` [CEFOTAXIME] displayed a minimal inhibitory concentration (MIC) of 4 µg/mL (≈ 8.78 µM).

For `C[C@@H](O)[C@H]1C(=O)N2C(C(=O)O)=C(S[C@@H]3CN[C@H](C(=O)Nc4cccc(C(=O)O)c4)C3)[C@H](C)[C@H]12` [ERTAPENEM], the MIC was determined as 0.016 µg/mL (≈ 0.0336 µM).

The subject of a further assay is Escherichia coli. As to the kind of experiment: Antimicrobial activity against Escherichia coli K-12 by agar dilution method.
Conditions: not given
It counts as functional.
Take `CO[C@@]1(NC(=O)Cc2cccs2)C(=O)N2C(C(=O)O)=C(COC(N)=O)CS[C@@H]21` [CEFOXITIN]: 2 µg/mL (≈ 4.68 µM) was the least that counted as inhibitory (MIC).

For `CO/N=C(\C(=O)N[C@@H]1C(=O)N2C(C(=O)[O-])=C(C[N+]3(C)CCCC3)CS[C@H]12)c1csc(N)n1` [CEFEPIME], 0.016 µg/mL (≈ 0.0333 µM) was the least that counted as inhibitory (MIC).

The compound `CO/N=C(\C(=O)N[C@@H]1C(=O)N2C(C(=O)O)=C(COC(C)=O)CS[C@H]12)c1csc(N)n1` [CEFOTAXIME] registered a minimum inhibitory concentration (MIC) of 0.03 µg/mL (≈ 0.0659 µM).

Compound `C[C@@H](O)[C@H]1C(=O)N2C(C(=O)O)=C(S[C@@H]3CN[C@H](C(=O)Nc4cccc(C(=O)O)c4)C3)[C@H](C)[C@H]12` [ERTAPENEM] had an MIC of 0.008 µg/mL (≈ 0.0168 µM).

A further assay has as its system Escherichia coli. Kind of assay: Antimicrobial activity against Escherichia coli DH5[alpha] harboring pBC-CTX-M-71 plasmid by agar dilution method. It counts as functional.
Conditions: not given
Compound `C[C@H]1[C@H](NC(=O)/C(=N\OC(C)(C)C(=O)O)c2csc(N)n2)C(=O)N1S(=O)(=O)O` [AZTREONAM] registered an MIC of 8 µg/mL (≈ 18.4 µM).

Consider `CO[C@@]1(NC(=O)Cc2cccs2)C(=O)N2C(C(=O)O)=C(COC(N)=O)CS[C@@H]21` [CEFOXITIN], for which the minimum inhibitory concentration (MIC) turned out to be 4 µg/mL (≈ 9.36 µM).

In turn, `CO/N=C(\C(=O)N[C@@H]1C(=O)N2C(C(=O)[O-])=C(C[N+]3(C)CCCC3)CS[C@H]12)c1csc(N)n1` [CEFEPIME] displayed a minimal inhibitory concentration (MIC) of 4 µg/mL (≈ 8.32 µM).

`CO/N=C(\C(=O)N[C@@H]1C(=O)N2C(C(=O)O)=C(COC(C)=O)CS[C@H]12)c1csc(N)n1` [CEFOTAXIME]: the lowest concentration to inhibit growth (MIC) was 16 µg/mL (≈ 35.1 µM).

`C[C@@H](O)[C@H]1C(=O)N2C(C(=O)O)=C(S[C@@H]3CN[C@H](C(=O)Nc4cccc(C(=O)O)c4)C3)[C@H](C)[C@H]12` [ERTAPENEM] displayed an MIC of 0.016 µg/mL (≈ 0.0336 µM).

A further assay concerns Escherichia coli. As to the kind of experiment: Antimicrobial activity against Escherichia coli DH5[alpha] harboring pBC-CTX-M-15 plasmid by agar dilution method. The assay is classed as functional.
Conditions: not given
`C[C@H]1[C@H](NC(=O)/C(=N\OC(C)(C)C(=O)O)c2csc(N)n2)C(=O)N1S(=O)(=O)O` [AZTREONAM] gave a minimal inhibitory concentration (MIC) of 64 µg/mL (≈ 147 µM).

In turn, `CO[C@@]1(NC(=O)Cc2cccs2)C(=O)N2C(C(=O)O)=C(COC(N)=O)CS[C@@H]21` [CEFOXITIN] returned an MIC of 4 µg/mL (≈ 9.36 µM).

As to `CO/N=C(\C(=O)N[C@@H]1C(=O)N2C(C(=O)[O-])=C(C[N+]3(C)CCCC3)CS[C@H]12)c1csc(N)n1` [CEFEPIME], inhibition of growth (MIC) required 16 µg/mL (≈ 33.3 µM).

In turn, `CO/N=C(\C(=O)N[C@@H]1C(=O)N2C(C(=O)O)=C(COC(C)=O)CS[C@H]12)c1csc(N)n1` [CEFOTAXIME] displayed a minimum inhibitory concentration (MIC) of over 256 µg/mL.

The compound `C[C@@H](O)[C@H]1C(=O)N2C(C(=O)O)=C(S[C@@H]3CN[C@H](C(=O)Nc4cccc(C(=O)O)c4)C3)[C@H](C)[C@H]12` [ERTAPENEM] came in with an MIC of 0.03 µg/mL (≈ 0.0631 µM).

For a further assay, the system named is Escherichia coli. As to the kind of experiment: Antimicrobial activity against Escherichia coli DH5[alpha] by agar dilution method. It counts as functional.
Conditions: not given
The compound `CO[C@@]1(NC(=O)Cc2cccs2)C(=O)N2C(C(=O)O)=C(COC(N)=O)CS[C@@H]21` [CEFOXITIN] had a minimal inhibitory concentration (MIC) of 4 µg/mL (≈ 9.36 µM).

Regarding `CO/N=C(\C(=O)N[C@@H]1C(=O)N2C(C(=O)[O-])=C(C[N+]3(C)CCCC3)CS[C@H]12)c1csc(N)n1` [CEFEPIME], 0.016 µg/mL (≈ 0.0333 µM) was the least that counted as inhibitory (MIC).

In turn, `CO/N=C(\C(=O)N[C@@H]1C(=O)N2C(C(=O)O)=C(COC(C)=O)CS[C@H]12)c1csc(N)n1` [CEFOTAXIME] gave an MIC of 0.03 µg/mL (≈ 0.0659 µM).

Turning to `C[C@@H](O)[C@H]1C(=O)N2C(C(=O)O)=C(S[C@@H]3CN[C@H](C(=O)Nc4cccc(C(=O)O)c4)C3)[C@H](C)[C@H]12` [ERTAPENEM], the minimal inhibitory concentration (MIC) stood at 0.016 µg/mL (≈ 0.0336 µM).

For a further assay, the system named is Klebsiella pneumoniae. Kind of assay: Antimicrobial activity against Klebsiella pneumoniae AH24-270 expressing blaCTX-M-71 gene by agar dilution method in presence of beta-lactamase inhibitor clavulanic acid. The assay is classed as functional.
Conditions: not given
Take `C[C@@H](O)[C@H]1C(=O)N2C(C(=O)O)=C(SCCNC=N)C[C@H]12` [IMIPENEM ANHYDROUS]: the MIC is 0.5 µg/mL.

For the compound `CO/N=C(\C(=O)N[C@@H]1C(=O)N2C(C(=O)O)=C(COC(C)=O)CS[C@H]12)c1csc(N)n1` [CEFOTAXIME], the MIC was found to be 2 µg/mL.

In the case of `C[C@@H](O)[C@H]1C(=O)N2C(C(=O)O)=C(S[C@@H]3CN[C@H](C(=O)Nc4cccc(C(=O)O)c4)C3)[C@H](C)[C@H]12` [ERTAPENEM], the minimal inhibitory concentration (MIC) stood at 8 µg/mL.

For another assay, the system named is Escherichia coli. As to the kind of experiment: Antimicrobial activity against Escherichia coli K-12 transconjugant harboring blaCTX-M-71 gene by agar dilution method in presence of beta-lactamase inhibitor clavulanic acid. It counts as functional.
Conditions: not given
As to `CO/N=C(\C(=O)N[C@@H]1C(=O)N2C(C(=O)O)=C(COC(C)=O)CS[C@H]12)c1csc(N)n1` [CEFOTAXIME], the minimal inhibitory concentration (MIC) was 0.06 µg/mL.

The test system of the next assay is Escherichia coli. Kind of assay: Antimicrobial activity against Escherichia coli K-12 by agar dilution method in presence of beta-lactamase inhibitor clavulanic acid. It counts as functional.
Conditions: not given
On to `C[C@@H](O)[C@H]1C(=O)N2C(C(=O)O)=C(SCCNC=N)C[C@H]12` [IMIPENEM ANHYDROUS], for which the MIC worked out at 0.13 µg/mL.

Regarding `CO/N=C(\C(=O)N[C@@H]1C(=O)N2C(C(=O)O)=C(COC(C)=O)CS[C@H]12)c1csc(N)n1` [CEFOTAXIME], the MIC stood at 0.016 µg/mL.

Another assay has as its system Escherichia coli. As to the kind of experiment: Antimicrobial activity against Escherichia coli DH5alpha harboring pBC-CTX-M-71 plasmid by agar dilution method in presence of beta-lactamase inhibitor clavulanic acid. The assay is classed as functional. As to conditions: DH5[alpha].
Turning to `C[C@@H](O)[C@H]1C(=O)N2C(C(=O)O)=C(SCCNC=N)C[C@H]12` [IMIPENEM ANHYDROUS], the MIC is 0.25 µg/mL.

Consider `CO/N=C(\C(=O)N[C@@H]1C(=O)N2C(C(=O)O)=C(COC(C)=O)CS[C@H]12)c1csc(N)n1` [CEFOTAXIME], for which the MIC is 0.03 µg/mL.

In a further assay the test system is Escherichia coli. As to the kind of experiment: Antimicrobial activity against Escherichia coli DH5alpha harboring pBC-CTX-M-15 plasmid by agar dilution method in presence of beta-lactamase inhibitor clavulanic acid. It counts as functional. As to conditions: DH5[alpha].
As to `CO/N=C(\C(=O)N[C@@H]1C(=O)N2C(C(=O)O)=C(COC(C)=O)CS[C@H]12)c1csc(N)n1` [CEFOTAXIME], the MIC was 0.06 µg/mL.

The test system of another assay is Escherichia coli. Kind of assay: Antimicrobial activity against Escherichia coli DH5alpha by agar dilution method in presence of beta-lactamase inhibitor clavulanic acid. As to conditions: DH5[alpha]. It counts as functional.
Regarding `CO/N=C(\C(=O)N[C@@H]1C(=O)N2C(C(=O)O)=C(COC(C)=O)CS[C@H]12)c1csc(N)n1` [CEFOTAXIME], the MIC is 0.016 µg/mL.
